Experimental data as given in patent publication US20110104055A1, “SUBSTITUTED N-ARYL BENZAMIDES AND RELATED COMPOUNDS FOR TREATMENT OF AMYLOID DISEASES AND SYNUCLEINOPATHIES” (priority 2002, published 2011).

What was measured:
Format in all cases: biochemical
Aβ 1-42 fibrils [1] = target: T1, Aβ 1-42 fibrils (Homo sapiens, UniProt P05067); test: Congo red binding assay, Aβ 1-42 fibrils (Example 6); conditions: 3-day incubation
T1 construct: purchased Bachem Inc
Method: (§1) In the Congo red binding assay the ability of a given test compound to alter amyloid (Aβ 1-42 fibrils, IAPP fibrils or NAC fibrils) binding to Congo red was quantified. In this assay, Aβ 1-42 fibrils, IAPP fibril or NAC fibrils and test compounds were incubated for 3 days and then vacuum filtered through a 0.2 μm filter. The amount of Aβ 1-42 fibrils, IAPP fibrils or NAC fibrils retained in the filter was then quantitated following staining of the filter with Congo red. After appropriate washing of the filter, any lowering of the Congo red color on the filter in the presence of the test compound (compared to the Congo red staining of the amyloid protein in the absence of the test compound) was indicative of the test compound's ability to diminish/alter the amount of aggregated and congophilic Aβ 1-42 fibrils, IAPP fibrils or NAC fibrils.
(§2) In the Congo red binding assay the ability of a test compound to alter amyloid (in this case, Aβ) binding to Congo red is quantified. In this assay, Aβ 1-42 and test compounds were incubated for 3 days and then vacuum filtered through a 0.2 μm filter. The amount of Aβ 1-42 retained in the filter was then quantified following staining of the filter with Congo red. After appropriate washing of the filter, any lowering of the Congo red color on the filter in the presence of the test compound (compared to the Congo red staining of the amyloid protein in the absence of the test compound) was indicative of the test compound's ability to diminish/alter the amount of aggregated and congophilic Aβ.
In one study, the ability of Aβ fibrils to bind Congo red in the absence or presence of increasing amounts of the compounds or EDTA (at Aβ:test compound weight ratios of 1:0.001, 1:0.01, 1:0.1 and 1:1) was determined.

IAPP fibrils = target: T2, IAPP fibrils (Homo sapiens, UniProt P10997); test: Congo red binding assay, IAPP fibrils; conditions: 3-day incubation
T2 construct: purchased Bachem Inc
T2 sequence (P10997 34-70 limits assumed): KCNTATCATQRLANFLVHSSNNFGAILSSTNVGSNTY
Method: as §1
as §2, with “IAPP)” for “Aβ)”, “IAPP” for “Aβ 1-42”, “IAPP.” for “Aβ.”
In one study, the ability of IAPP fibrils to bind Congo red in the absence or presence of increasing amounts of the compounds or EDTA (at IAPP:test compound weight ratios of 1:0.001, 1:0.01, 1:0.1 and 1:1) was determined.

Aβ 1-42 fibrils [2] = target: T1, Aβ 1-42 fibrils; test: Congo red binding assay, Aβ 1-42 fibrils (Example 11); conditions: 3-day incubation
Method: as §2, with “binding assay,” for “binding assay”, “then quantitated” for “then quantified”
In one study, the ability of Aβ fibrils to bind Congo red in the absence or presence of increasing amounts of the compounds or EDTA (at Aβ:test compound weight ratios of 1:1, 1:0.1, 1:0.01 or 1:0.001) was determined.

Aβ 1-42 fibrils [3] = target: T1, Aβ 1-42 fibrils; test: Thioflavin T fluorometry, disruption of pre-formed Aβ 1-42 fibrils (Example 7); conditions: for % inhibition of Aβ (Thioflavin T fluorometry): 25 μM pre-fibrillized Aβ 1-42, 37° C., 3 days (Table 3)
Method: In this assay Thioflavin T binds specifically to fibrillar amyloid, and this binding produces a fluorescence enhancement at 485 nm that is directly proportional to the amount of amyloid fibrils formed. The higher the fluorescence, the greater the amount of amyloid fibrils formed (Naki et al., Lab. Invest. 65:104-110, 1991; Levine III, Protein Sci. 2:404-410, 1993; Amyloid: Int. J. Exp. Clin. Invest. 2:1-6, 1995).
Following 3 days of co-incubation, 50 μl of each incubation mixture was transferred into a 96-well microtiter plate containing 150 μl of distilled water and 50 μl of a Thioflavin T solution (i.e. 500 mM Thioflavin T in 250 mM phosphate buffer, pH 6.8). The fluorescence was read at 485 nm (444 nm excitation wavelength) using an ELISA plate fluorometer after subtraction with buffer alone or compound alone, as blank).

Aβ 1-42 = target: T3, Aβ 1-42 (Homo sapiens, UniProt P05067); test: SDS-PAGE/Western blot of Aβ 1-42 after incubation with compounds; conditions: 25 μM pre-fibrillized Aβ 1-42, 37° C., 3 days, filtrate of 0.2 μm filter, 6E10 antibody
T3 construct: 25 μM of pre-fibrillized Aβ 1-42 (Bachem Inc) was incubated at 37° C; purchased Bachem Inc
Method: The biological activity of the compounds provided herein as disruptors/inhibitors of Alzheimer's disease β-amyloid protein (Aβ) fibrils, type 2 diabetes IAPP fibrils and Parkinson's disease NAC fibrils was assessed by determining the efficacy of the compounds to cause a disassembly/disruption of pre-formed amyloid fibrils of Alzheimer's disease (i.e. consisting of Aβ 1-42 fibrils), IAPP fibrils and Parkinson's disease NAC fibrils.
In this latter study, triplicate samples of pre-fibiillized Aβ 1-42 (25 μM) was incubated at 37° C. for 3 days, alone or in the presence of the compounds or EDTA. Five micrograms of each sample was then filtered through a 0.2 μm filter. Protein recovered from the filtrate was then loaded, and ran on a 10-20% Tris-Tricine SDS-PAGE, blotted to nitrocellulose and detected using an Aβ-antibody (clone 6E10; Senetek).

[4] = Aβ:test compound wt/wt ratio 1:0.001
[5] = Aβ:test compound wt/wt ratio 1:0.01
[6] = Aβ:test compound wt/wt ratio 1:0.1
[7] = Aβ:test compound wt/wt ratio 1:1

T1 sequence (P05067 672-713): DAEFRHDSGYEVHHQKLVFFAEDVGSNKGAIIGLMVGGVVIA
T3 sequence (P05067 672-713): as above

## O=C(O)CN(CCN(CC(=O)O)CC(=O)O)CC(=O)O [EDTA]
Aβ 1-42 fibrils [1]
  inhibition of Aβ 1-42 fibril binding to Congo red, in words: no significant inhibition
Aβ 1-42 fibrils [1]; [4]
  % inhibition of Aβ (Congo red binding): 0.0 ± 0.62%
Aβ 1-42 fibrils [1]; [5]
  % inhibition of Aβ (Congo red binding): 0.0 +/− 0.49%
Aβ 1-42 fibrils [1]; [6]
  % inhibition of Aβ (Congo red binding): 0.0 ± 0.76%
Aβ 1-42 fibrils [1]; [7]
  % inhibition of Aβ (Congo red binding): 3.9 +/− 1.37%
IAPP fibrils
  inhibition of IAPP fibril binding to Congo red, in words: no significant inhibition
IAPP fibrils; IAPP:test compound wt/wt ratio 1:0.001
  % inhibition of IAPP (Congo red binding): 0.0 ± 1.82%
IAPP fibrils; IAPP:test compound wt/wt ratio 1:0.01
  % inhibition of IAPP (Congo red binding): 0.0 +/− 1.65%
IAPP fibrils; IAPP:test compound wt/wt ratio 1:0.1
  % inhibition of IAPP (Congo red binding): 0.0 +/− 2.40%
IAPP fibrils; IAPP:test compound wt/wt ratio 1:1
  % inhibition of IAPP (Congo red binding): 13.9 +/− 4.71%
Aβ 1-42 fibrils [2]; [4]
  % Inhibition Aβ (result ± S.D.), Congo red binding: 1.2 ± 7.95%
Aβ 1-42 fibrils [2]; [5]
  % Inhibition Aβ (result ± S.D.), Congo red binding: 8.4 ± 4.00%
Aβ 1-42 fibrils [2]; [6]
  % Inhibition Aβ (result ± S.D.), Congo red binding: 0.0 ± 6.83%
Aβ 1-42 fibrils [2]; [7]
  % Inhibition Aβ (result ± S.D.), Congo red binding: 8.4 ± 2.74%
Aβ 1-42 fibrils [2]; all concentrations tested
  inhibition of Aβ 1-42 fibril binding to Congo red, in words: no significant inhibition
Aβ 1-42 fibrils [3]; [4]
  % inhibition of Aβ (Thioflavin T fluorometry): 10.3 +/− 10.81%
Aβ 1-42 fibrils [3]; [5]
  % inhibition of Aβ (Thioflavin T fluorometry): 0.0 +/− 2.26%
Aβ 1-42 fibrils [3]; [6]
  % inhibition of Aβ (Thioflavin T fluorometry): 0.0 +/− 1.18%
Aβ 1-42 fibrils [3]; [7]
  % inhibition of Aβ (Thioflavin T fluorometry): 5.0 +/− 11.39%
Aβ 1-42 fibrils [3]; Thioflavin T fluorometry, all concentrations tested, 3 days
  disruption/disassembly of preformed Aβ 1-42 fibrils, in words: no significant inhibition/disruption
Aβ 1-42
  detection of Aβ 1-42 monomers (~4 kilodalton band) after incubation: detected as a ˜4 kilodalton band
